According to US8299252B2, “Pyrazolopyridine and pyrrolopyridine multikinase inhibitors” (Chugai Seiyaku Kabushiki Kaisha, priority 2005, dated 2012):
In brackets after ≈: the same amount, converted by molar mass.

How the values were obtained:
[1] = test system: human umbilical vein endothelial cells (HUVEC), VEGF-dependent proliferation; assay: VEGF-dependent HUVEC proliferation inhibition assay; assay type: cell-based; conditions: read-out: 50% proliferation inhibitory concentration (IC50 value) HUVEC (VEGF-dependent), 20 ng/mL of VEGF, 72 hours, WST-1
Experimental: (§1) The compounds according to the present invention were measured for cancer cell proliferation inhibitory activity and human umbilical vein endothelial cell (HUVEC) proliferation inhibitory activity.
(§2) Test compounds were serially diluted with dimethyl sulfoxide and then diluted 50 times with Ca^2+- and Mg^2+-free phosphate-buffered saline, and 20 μL of each of the resulting solution was dispensed into a 96-well plate. […] Each cell suspension contains approximately 3000 cells/180 μL. These cell suspensions were dispensed to the plate containing the test compounds at 180 μL/well and incubated in a 5% carbon dioxide gas incubator at 37° C. for 72 hours. 20 μL of WST-8 (HCT116, Dojin) or WST-1 (HUVEC, Roche Diagnostics) was added to each well, and absorbance at 450 nm (reference wavelength: 650 nm) was measured.

[2] = test system: tube formation of human-derived vascular endothelial cells (HUVEC); assay: Tube formation inhibition test (angiogenesis assay kit, KURABO); assay type: cell-based; conditions: 264 h, final concentration 6.4 nM, 11 days, read-out: Tube formation inhibition ratio (%)
Experimental: The formed tubes were stained with a tube staining kit CD31 (KURABO). The stain image of each well was taken under a microscope, stored in an image file, and measured for the tube formation area using angiogenesis quantitative analysis software of KURABO. The inhibition ratio % of each test compound added to the well was calculated, provided that the ratio of the reference was 100%.

[3] = test system: human umbilical vein endothelial cells (HUVEC), VEGF-independent proliferation; assay: VEGF-independent HUVEC proliferation inhibition assay; assay type: cell-based; conditions: read-out: 50% proliferation inhibitory concentration (IC50 value) HUVEC (VEGF-independent), vascular endothelial cell growth-promoting agent and heparin, 72 hours, WST-1
Experimental: as §1, §2

[4] = molecular target: T1, FLT3 intracellular domain protein (Homo sapiens, UniProt P36888); assay: Flt3 enzyme inhibition test (HTRF); assay type: biochemical; conditions: phosphorylation of biotinylated peptide
T1 sequence (P36888 564-993 limits assumed): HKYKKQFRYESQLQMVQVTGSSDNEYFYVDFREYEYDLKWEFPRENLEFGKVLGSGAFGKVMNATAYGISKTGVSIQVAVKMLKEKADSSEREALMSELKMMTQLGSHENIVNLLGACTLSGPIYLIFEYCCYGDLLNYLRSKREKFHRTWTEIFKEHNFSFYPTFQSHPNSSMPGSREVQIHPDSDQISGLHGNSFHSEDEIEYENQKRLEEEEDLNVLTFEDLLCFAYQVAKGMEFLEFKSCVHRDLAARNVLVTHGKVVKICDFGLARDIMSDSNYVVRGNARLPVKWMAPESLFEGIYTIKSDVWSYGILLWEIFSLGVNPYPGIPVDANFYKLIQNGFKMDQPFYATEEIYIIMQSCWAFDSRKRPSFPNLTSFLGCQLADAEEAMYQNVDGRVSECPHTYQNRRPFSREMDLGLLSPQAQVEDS
Experimental: The FLT3 inhibitory activity was measured by the activity of FLT3 intracellular domain protein inhibiting for phosphorylation of a biotinylated peptide ([…]).

[5] = test system: human colon cancer cell line HCT116 cells; assay: Cell proliferation inhibitory activity, HCT116; assay type: cell-based; conditions: Homo sapiens, HCT-116, read-out: 50% proliferation inhibitory concentration (IC50 value) HCT116; HCT116, 72 hours, WST-8
Experimental: as §1, §2

[6] = test system: human colon cancer cell line HCT116 cells; assay: Antitumor test, HCT116 transplanted subcutaneously in nude mice; assay type: in vivo, female Balb/c nude mouse; conditions: once a day for 12 days; for Tumor growth inhibition ratio (%): last administration day; for Decrease ratio in body weight (%): maximum decrease
Experimental: A cell suspension of human colon cancer cell line HCT116 cells was prepared using Hanks's solution, and 5.0×10^6 cells thereof were transplanted subcutaneously into the flank of each female Balb/c nude mouse. Oral administration of the test compound (once a day for 12 days) was started when the transplanted tumor volume reached 200 to 250 mm^3. The tumor volume was calculated by the expression: 0.5×(minor axis)^2×(major axis). The tumor growth inhibition ratio of tumor growth of the test compound to tumor growth of the reference group was determined.

[7] = Solubility in fasted state simulated intestinal fluid; assay type: physicochemical; conditions: pH 6.5, fassif, kinetic from dmso stock, fasted state simulated intestinal fluid (pH6.5), 37° C.
Experimental: 2 μL of each dimethyl sulfoxide solutions containing test compounds were dispensed into wells of a 96-well plate, and 200 μL of fasted state simulated intestinal fluid (pH6.5) was added to each well. The plate was shaken at 37° C. for 20 hours. The solution was filtered through a membrane filter, and 101 μL of the filtrate was transferred to a UV plate, followed by addition of 100 μL of a solution mixture of ethanol:water=2:1 thereto. Separately, as a standard, 101 μL of a solution prepared by 2 μL of a dimethyl sulfoxide solution, 4 μL of dimethyl sulfoxide, 400 μL of ethanol, and 200 μL of water was transferred to a UV plate, and 100 μL of fasted state simulated intestinal fluid (pH6.5) was added thereto. The solubility was calculated by the following expression: Solubility=[(absorbance of test solution)−blank]/[(absorbance of standard solution)−blank]×165 μM (165 μM is the concentration of the standard solution) Composition of the fasted state simulated intestinal fluid (pH6.5)
The composition was prepared in compliance with the description in E. Galia, et al., Pharm. Res. 1998, 698.
Taurocholic acid (161 mg), L-α-phosphatidylcholine (59 mg), potassium dihydrogen phosphate (0.39 g), and potassium chloride (0.77 g) were added to about 90 mL of water. The resulting solution was adjusted to a pH of 6.5 with a sodium hydroxide aqueous solution and then diluted to a volume of 100 mL with water. The solution was filtered through a membrane filter.

Raf-1 = Raf-1 (Homo sapiens, UniProt P04049); assay: Raf-1 enzyme inhibition assay (MEK-1 phosphorylation, HTRF); assay type: biochemical; conditions: phosphorylation of His6-MEK-1
Experimental: (§3) The compounds according to the present invention were measured for Raf-1 and KDR enzyme inhibitory activities.
(§4) The Raf-1 inhibitory activity was measured by the activity of Raf-1 protein for inhibiting phosphorylation of MEK-1 protein having six histidine residues (His6) fused to the N-terminus thereof. […] The KDR inhibitory activity was measured by the activity of KDR intracellular domain protein for inhibiting phosphorylation of a biotinylated peptide ([…]).

[8] = molecular target: KDR intracellular domain protein (Homo sapiens, UniProt P35968); assay: KDR enzyme inhibition assay (biotinylated peptide phosphorylation, HTRF); assay type: biochemical; conditions: phosphorylation of biotinylated peptide
Experimental: as §3, §4

[9] = test system: choroidal neovascularization; assay: Laser coagulation-induced murine choroidal neovascularization model; assay type: in vivo, C57BL6J mice; conditions: for Average FA score: once a day for three days
Experimental: Laser coagulation was performed on two- to three-month-old C57BL6J mice (ten mice per group) by using a 408 nm semiconductor laser (DC-3000, Nidek). Both eyes were each irradiated at three positions with a spot size of 170 μm, an exposure time of 0.02 sec, and an output of 200 mW. The drug was orally administered once a day for three days beginning on the day of the laser coagulation. On the next day of the last administration, the mice were intravenously injected with 7 mg/kg of fluorescein. Five minutes after the injection, three fluorescent fundus images of each eye were taken (TRC-501X, Topcon) and stored in a CCD camera having 640×480 pixels as an image file. The total pixel brightness (0 to 1) in regions where fluorescein leakage was detected was used as an index (FA score) of choroidal neovascularization activity. The FA score was calculated by defining reference values such that the pixel brightness in a capillary region of a non-coagulated site is 0 and the pixel brightness on a main branch of the retinal blood vessel is 1.

[10] = Pharmacokinetics test, oral administration; assay type: in vivo; conditions: female, Balb/c nude, mouse, 100 mg/kg, plasma
Experimental: The compound according to the present invention and known Compound A were measured for pharmacokinetics. Each of the test compounds was orally administered to each female Balb/c nude mouse at a dose of 100 mg/kg, and concentrations of the compound in plasma 0.5, 2, 7, and 24 hours after the administration were quantitatively measured by LC-MS-MS.

Raf-1, sequence (P04049 whole entry): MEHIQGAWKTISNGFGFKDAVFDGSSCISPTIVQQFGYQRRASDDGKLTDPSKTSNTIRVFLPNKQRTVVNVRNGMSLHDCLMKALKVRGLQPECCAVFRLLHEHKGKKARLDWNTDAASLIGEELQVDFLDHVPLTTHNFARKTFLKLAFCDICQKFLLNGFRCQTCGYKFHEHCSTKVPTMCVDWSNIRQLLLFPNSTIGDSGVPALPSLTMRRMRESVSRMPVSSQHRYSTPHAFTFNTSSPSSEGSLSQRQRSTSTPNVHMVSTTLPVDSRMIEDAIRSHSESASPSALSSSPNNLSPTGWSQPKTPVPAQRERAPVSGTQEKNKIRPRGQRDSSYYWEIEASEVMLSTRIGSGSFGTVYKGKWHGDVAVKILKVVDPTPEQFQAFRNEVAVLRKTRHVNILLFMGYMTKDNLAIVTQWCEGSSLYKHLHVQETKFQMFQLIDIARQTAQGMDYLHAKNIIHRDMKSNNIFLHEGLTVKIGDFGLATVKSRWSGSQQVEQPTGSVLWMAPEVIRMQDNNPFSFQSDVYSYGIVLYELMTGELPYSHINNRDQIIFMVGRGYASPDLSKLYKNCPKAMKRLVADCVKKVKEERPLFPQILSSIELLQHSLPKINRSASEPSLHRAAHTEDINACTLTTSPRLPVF
KDR intracellular domain protein, sequence (P35968 786-1356 limits assumed): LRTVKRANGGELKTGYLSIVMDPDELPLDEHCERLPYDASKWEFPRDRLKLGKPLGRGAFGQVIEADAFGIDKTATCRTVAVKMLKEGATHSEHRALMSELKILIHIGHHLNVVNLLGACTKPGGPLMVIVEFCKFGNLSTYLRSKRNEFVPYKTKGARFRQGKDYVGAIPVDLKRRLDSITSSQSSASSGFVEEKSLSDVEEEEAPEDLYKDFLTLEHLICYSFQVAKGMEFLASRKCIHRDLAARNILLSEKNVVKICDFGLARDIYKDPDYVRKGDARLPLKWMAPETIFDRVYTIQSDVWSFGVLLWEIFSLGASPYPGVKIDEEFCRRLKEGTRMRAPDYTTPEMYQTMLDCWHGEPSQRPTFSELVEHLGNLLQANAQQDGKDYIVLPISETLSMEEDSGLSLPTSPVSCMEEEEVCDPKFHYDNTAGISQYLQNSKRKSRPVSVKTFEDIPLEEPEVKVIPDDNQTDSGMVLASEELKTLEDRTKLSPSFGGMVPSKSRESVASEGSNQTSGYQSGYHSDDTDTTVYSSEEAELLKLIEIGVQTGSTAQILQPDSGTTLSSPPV

| Compound | IC50 [1] [nM] | inhibition at 0.0064 µM [2] [%] | IC50 [3] [nM] | IC50 [4] [nM] | IC50 [5] [nM] | solubility at 20 h [7] [µg/mL] | also measured |
| --- | --- | --- | --- | --- | --- | --- | --- |
| COCCOc1ccc(NC(=O)Nc2ccc(Oc3ccnc4[nH]ccc34)cc2)cc1C(F)(F)F [Compound 1, 1-[4-(2-methoxyethoxy)-3-(trifluoromethyl)phenyl]-3-[4-(1H-pyrrolo[2,3-b]pyridin-4-yloxy)phenyl]urea] | 3.7 | 98 | 2600 | 3.2 | 2100 |  |  |
| COCCOc1ccc(NC(=O)Nc2ccc(Oc3ccnc4[nH]ncc34)cc2)cc1C(F)(F)F [Compound 2, 1-[4-(2-Methoxyethoxy)-3-(trifluoromethyl)phenyl]-3-[4-(1H-pyrazolo[3,4-b]pyridin-4-yloxy)phenyl]urea] |  | 82 |  |  |  |  |  |
| O=C(Nc1ccc(Oc2ccnc3[nH]ccc23)cc1)Nc1ccc(OC2CCOCC2)c(C(F)(F)F)c1 [Compound 7, 1-[4-(1H-Pyrrolo[2,3-b]pyridin-4-yloxy)phenyl]-3-[4-(tetrahydropyran-4-yloxy)-3-(trifluoromethyl)phenyl]urea] | 3.9 | 99 | 860 | 6.9 | 3200 |  | Tumor growth inhibition ratio (%) ([6]; 200 mg/kg oral): 97%; Decrease ratio in body weight (%) ([6]; 200 mg/kg oral): 3.6% |
| O=C(Nc1ccc(Oc2ccnc3[nH]ccc23)cc1)Nc1ccc(CCCF)c(C(F)(F)F)c1 [Compound 11, 1-[4-(3-Fluoropropyl)-3-(trifluoromethyl)phenyl]-3-[4-(1H-pyrrolo[2,3-b]pyridin-4-yloxy)phenyl]urea] | 5.8 | 82 | 650 | 9.7 | 1600 | 14 (≈ 29.6 µM) | Tumor growth inhibition ratio (%) ([6]; 100 mg/kg oral): 89%; Decrease ratio in body weight (%) ([6]; 100 mg/kg oral): 7.8% |
| O=C(Nc1ccc(Oc2ccnc3[nH]ccc23)cc1)Nc1ccc(OCCF)c(C(F)(F)F)c1 [Compound 15, 1-[4-(2-Fluoroethoxy)-3-(trifluoromethyl)phenyl]-3-[4-(1H-pyrrolo[2,3-b]pyridin-4-yloxy)phenyl]urea] | 4 | 100 | 1200 | 11 | 2300 |  |  |
| O=C(Nc1ccc(Oc2ccnc3[nH]ncc23)cc1)Nc1ccc(CCCF)c(C(F)(F)F)c1 [Compound 19, 1-[4-(3-Fluoro-propyl)-3-(trifluoromethyl)phenyl]-3-[4-(1H-pyrazolo[3,4-b]pyridin-4-yloxy)phenyl]urea] | 1.8 | 98 | 300 | 18 | 2400 | 16 (≈ 33.8 µM) | Tumor growth inhibition ratio (%) ([6]; 100 mg/kg oral): 89%; Decrease ratio in body weight (%) ([6]; 100 mg/kg oral): 4.9% |
| O=C(Nc1ccc(Oc2ccnc3[nH]ccc23)cc1)Nc1ccc(CCF)c(C(F)(F)F)c1 [Compound 21, 1-[4-(2-Fluoroethyl)-3-(trifluoromethyl)phenyl]-3-[4-(1H-pyrrolo[2,3-b]pyridin-4-yloxy)phenyl]urea] | 4.4 | 100 | 860 |  | 1300 |  |  |
| O=C(Nc1ccc(Oc2ccnc3[nH]ccc23)cc1)Nc1cc(CCF)cc(C(F)(F)F)c1 [Compound 22, 1-[3-(2-Fluoroethyl)-5-(trifluoromethyl)phenyl]-3-[4-(1H-pyrrolo[2,3-b]pyridin-4-yloxy)phenyl]urea] | 5.4 | 96 | 630 | 14 | 1300 | 16 (≈ 34.9 µM) | IC50 (Raf-1): 23 nM; IC50 [8]: 3.6 nM |
| O=C(Nc1ccc(Oc2ccnc3[nH]ccc23)cc1)Nc1ccc(Oc2ccc(F)cc2)c(C(F)(F)F)c1 [Compound 58, 1-[4-(4-Fluorophenoxy)-3-(trifluoromethyl)phenyl]-3-[4-(1H-pyrrolo[2,3-b]pyridin-4-yloxy)phenyl]urea] |  |  |  |  |  |  | inhibition of the angiogenesis (in words) ([9]; 50 mg/kg): significantly inhibited; Average FA score ([9]; 50 mg/kg oral): 7.127; Average FA score ([9]; 100 mg/kg oral): 6.664 |
| CNC(=O)c1cc(Oc2ccc(NC(=O)Nc3ccc(Cl)c(C(F)(F)F)c3)cc2)ccn1 [Compound A, BAY 43-9006, reference compound] |  |  |  |  |  | 6 (≈ 12.9 µM) | AUC [10]: 189 µg·h/mL; Cmax [10]: 19200 ng/mL; inhibition of the angiogenesis (in words) ([9]; 100 mg/kg): did not significantly inhibit; Average FA score ([9]; 100 mg/kg oral): 7.258 |
